Laboratory results taken from patent US9113629B2, “4-amino-6-(4-substituted-phenyl)-picolinates and 6-amino-2-(4-substituted-phenyl)-pyrimidine-4-carboxylates and their use as herbicides” (DOW AGROSCIENCES LLC, priority 2013, dated 2015).
Where two headings read alike, the source gives them in different places.

How the values were obtained:
[1] = system: Key Broadleaf Weed and Crop Species; experiment: Post-emergent Test II herbicidal activity (Table 5); assay type: in vivo; details: post-emergence, 336 h, post-emergent, 14 days after application; for pest or weed control at 70 g/ha: 70 g ai/ha; for pest or weed control at 140 g/ha: 140 g ai/ha
Summary of the method: (§1)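 Compounds, dissolved in 97:3 acetone/DMSO and diluted into an aqueous carrier containing crop oil concentrate and Triton X-155, are applied over the top of young plants at 187 L/ha. Injury is scored visually at 14 d, 0% meaning no effect and 100% complete kill.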

[2] = system: Key Grass and Sedge Weeds as well as Grass Crops; experiment: Post-emergent Test II herbicidal activity (Table 6); assay type: in vivo; details: post-emergence, 336 h; for pest or weed control at 70 g/ha: application rate 70 g ai/ha; for pest or weed control at 140 g/ha: application rate 140 g ai/ha
Summary of the method: as §1

[3] = ABUTH: velvetleaf (Abutilon theophrasti), read-out: Visual Growth Reduction (%) 14 Days After Application ABUTH
[4] = AMARE: redroot pigweed (Amaranthus retroflexus), read-out: Visual Growth Reduction (%) 14 Days After Application AMARE
[5] = BRSNN: oilseed-rape, canola (Brassica napus), read-out: Visual Growth Reduction (%) 14 Days After Application BRSNN
[6] = CHEAL: lambsquarters (Chenopodium album), read-out: Visual Growth Reduction (%) 14 Days After Application CHEAL
[7] = EPHHL: wild poinsettia (Euphorbia heterophylla), read-out: Visual Growth Reduction (%) 14 Days After Application EPHHL
[8] = HELAN: sunflower (Helianthus annuus), read-out: Visual Growth Reduction (%) 14 Days After Application HELAN
[9] = VIOTR: wild pansy (Viola tricolor), read-out: Visual Growth Reduction (%) 14 Days After Application VIOTR
[10] = CYPES: yellow nutsedge (Cyperus esculentus), read-out: Visual Growth Reduction (%) 14 Days After Application, CYPES
[11] = DIGSA: crabgrass (Digitaria sanguinalis), read-out: Visual Growth Reduction (%) 14 Days After Application, DIGSA
[12] = ECHCG: barnyardgrass (Echinochloa crus-galli), read-out: Visual Growth Reduction (%) 14 Days After Application, ECHCG
[13] = ORYSA: rice (Oryza sativa), read-out: Visual Growth Reduction (%) 14 Days After Application, ORYSA
[14] = SETFA: giant foxtail (Setaria faberi), read-out: Visual Growth Reduction (%) 14 Days After Application, SETFA
[15] = SORVU: grain sorghum (Sorghum vulgare), read-out: Visual Growth Reduction (%) 14 Days After Application, SORVU
[16] = TRZSS (wheat, Triticum aestivum), read-out: Visual Growth Reduction (%) 14 Days After Application, TRZSS
[17] = ZEAMX: maize, corn (Zea mays), read-out: Visual Growth Reduction (%) 14 Days After Application, ZEAMX

COC(=O)c1nc(-c2cc(F)c(C(F)(F)F)cc2F)cc(N)c1Cl [Compound 70, methyl 4-amino-3-chloro-6-(2,5-difluoro-4-(trifluoromethyl)phenyl)picolinate]
0 to 29%: pest or weed control at 70 g/ha [2, 13] | pest or weed control at 140 g/ha [2, 13]
30 to 44%: pest or weed control at 70 g/ha [2, 14]
95 to 100%: pest or weed control at 70 g/ha [1, 3] | pest or weed control at 140 g/ha [1, 3] | pest or weed control at 70 g/ha [1, 4] | pest or weed control at 140 g/ha [1, 4] | pest or weed control at 70 g/ha [1, 6] | pest or weed control at 140 g/ha [1, 6] | pest or weed control at 70 g/ha [1, 7] | pest or weed control at 140 g/ha [1, 7] | pest or weed control at 140 g/ha [1, 8] | pest or weed control at 70 g/ha [2, 10] | pest or weed control at 140 g/ha [2, 10] | pest or weed control at 140 g/ha [2, 11] | pest or weed control at 140 g/ha [2, 12] | pest or weed control at 140 g/ha [2, 15] | pest or weed control at 70 g/ha [2, 17] | pest or weed control at 140 g/ha [2, 17]
85 to 94%: pest or weed control at 140 g/ha [1, 5] | pest or weed control at 70 g/ha [1, 8] | pest or weed control at 70 g/ha [2, 11] | pest or weed control at 70 g/ha [2, 12] | pest or weed control at 70 g/ha [2, 15] | pest or weed control at 140 g/ha [2, 16]
60 to 74%: pest or weed control at 70 g/ha [1, 9] | pest or weed control at 140 g/ha [2, 14]
75 to 84%: pest or weed control at 70 g/ha [1, 5] | pest or weed control at 140 g/ha [1, 9] | pest or weed control at 70 g/ha [2, 16]
